The values that follow are results of earlier work, collected in US8476227B2, “Methods of activating a melanocortin-4 receptor pathway in obese subjects” (Ethicon Endo-Surgery, Inc., priority 2010, dated 2013).

For this series the following is noted: rat models; background statement, no dose or regimen given.

NDP-MSH: the body weight gain result is listed as “attenuate” and the food intake entry is reported as “attenuate”.
